Values quoted from earlier work as cited in EP4602929A1, “ORAL PRODUCT WITH POWDER COATING” (Nicoventures Trading Limited, priority 2024, dated 2025).

| Structure (SMILES) | solubility in water |
| --- | --- |
| CC(/C=C/C=C(C)/C=C/C(=O)O)=C\C=C\C=C(C)\C=C\C=C(C)\C=C\C(=O)O (stereo in doubt) [norbixin, (2E,4E,6E,8E,10E,12E,14E,16E,18E)-4,8,13,17-tetramethylicosa-2,4,6,8,10,12,14,16,18-nonaenedioic acid] | water soluble |
| COC(=O)/C=C/C(C)=C\C=C\C(C)=C\C=C\C=C(C)\C=C\C=C(C)\C=C\C(=O)O [bixin, (2E,4E,6E,8E,10E,12E,14E,16Z,18E)-20-methoxy-4,8,13,17-tetramethyl-20-oxoicosa-2,4,6,8,10,12,14,16,18-nonaenoic acid] | insoluble in water |
